Results on one compound are retold here after patent publication US20240156789A1, “ORAL FELINE FEED AND METHODS FOR CONTROLLING FLEA INFESTATIONS IN A FELINE” (priority 2021, published 2024).

Holding throughout (type): in vivo
A short description of series [1]: Example 5: plasma levels of isoxazoline in cats given two medicated feed formulations. As to conditions: 1 mg/kg daily, days 0-14. The procedure: Methods: A pool of cats are to be randomly assigned to a single control group and 2 treatment groups with 6 cats per group.
(§1) The cats are to be housed individually during the study period and are to have ad libitum access to water.
Each cat in a treatment group (test groups 2 and 3) is to receive one of two medicated daily feeds from study days 0-14. The medicated daily feed is to be offered to the cats for 1 hour on each of days 0-14 according to TABLE 3.
Blood is to be drawn at day 0 (day of the first administration of medicated feed) and days 2, 4, 7, 10, 14, 21 and 30 after the initial dose of isoxazoline is administered. The average concentration of isoxazoline in the blood for each of the medicated feed formulations (treatment groups 2 and 3) can then be determined.

For series [2], the system named is Ctenocephalides felis. The series is described as follows: Example 1: efficacy of isoxazoline liquid formulation given by mouth to cats against fleas. The note with it: 1.125 mg/kg by mouth daily on days 0-29, liquid formulation, fed. The text has this: Methods: A pool of 14 cats are to be preliminarily infested with ˜100 unfed adult C. felis in order to identify cats that can suitably sustain a reliable infestation rate, defined as approximately 50% fleas being live at the end of a 48-hour period. The 12 cats with the highest live flea counts are to be selected for inclusion in the study. The cats are to be randomized and divided into a control group and a treatment group with 6 cats per group.
The cats are to be housed individually during the study period and are to be fed a commercial dry cat food ration with ad libitum access to water.
(§2) Each cat in the isoxazoline treatment group is to receive by mouth a liquid formulation of isoxazoline. The dosage of 1.125 mg/kg of isoxazoline is to be administered to the cats on each of days 0-29.
Cats in the control group are not to receive isoxazoline or any other flea control treatment. Each cat in the treatment group is to be offered its daily ration (dry food) and the individual doses of liquid formulation are to be administered after the individual cat has eaten at least 25% of its total daily ration. After receiving the dose of isoxazoline, the cats are to be allowed to continue eating. This mimics incorporating the isoxazoline in feed. Each cat in the treatment group and the control group is to be experimentally infested with 100 unfed adult fleas on test days −1, 5, 12, 20 and 35. […]

The nature of series [3]: Example 1: average plasma concentration of isoxazoline in cats, daily oral liquid dosing. As to conditions: 1.125 mg/kg daily oral. The procedure: as §2
Using the same study method as described above, blood is to be drawn at 72, 168, 336, 504, 720 and 888 hours after the initial dose of isoxazoline is administered. The average concentration of isoxazoline in the blood can then be determined.

Series [4] deals with Ctenocephalides felis. Kind of series: Example 6: efficacy of Mivorilaner in medicated feed in cats against fleas.
Text: FIG. 1. A graph of the arithmetic mean efficacy for treatment Group 2 (vertical hash) and Group 3 (horizontal hash). Percent efficacy=[AM fleas CONTROL−AM fleas TREATED]/AM fleas CONTROL Efficacy measured at 2, 9, 16, 30, and 37 days after Initial Treatment.
Methods: A pool of cats are to be preliminarily infested with ˜100 unfed adult C. felis fleas in order to produce cats that can suitably sustain a reliable infestation rate, defined as approximately 50% retention of live fleas at the end of a 48-hour period. The cats with the highest live flea counts are to be randomly assigned to a single control group (Group 1) and 2 medicated feed treatment groups (Groups 2 and 3) with 4 cats per group. The cats in groups 2 and 3 will receive Mivorilaner.
as §1
Each cat in a treatment group (Groups 2 and 3) is to receive a medicated daily feed from study days 0-29 according to TABLE 4.
The cats are to be fasted overnight prior to each daily treatment. The daily dose of Mivorilaner is to be mixed into a small portion (approximately 25% of the cat's daily dietary needs) of wet canned cat food. Approximately 4 hours after the medicated feed has been initially offered, the remaining medicated feed, if any, will be mixed with the 75% unmedicated daily feed for each cat. […]

As for `O=C(CNC(=O)c1sc(C2=NO[C@@](c3cc(Cl)c(F)c(Cl)c3)(C(F)(F)F)C2)c2c1CCC2)NCC(F)F` [mivorilaner, 3-[(5S)-5-(3,5-dichloro-4-fluorophenyl)-5-(trifluoromethyl)-4,5-dihydroisoxazol-3-yl]-N-[2-[(2,2-difluoroethyl)amino]-2-oxoethyl]-5,6-dihydro-4H-cyclopenta[c]thiophene-1-carboxamide], the plasma concentrations result in series [1] was “consistent between treatment groups 2 and 3”. The “reduction in live flea counts over the control group” value in the series with Ctenocephalides felis [2] was “at least 95%”. The average plasma concentration entry is reported as “about 1011 ng/mL” in series [3] (at 72 hours); “about 4088 ng/mL” in series [3] (at 504 hours); “about 3025 ng/mL” in series [3] (at 888 hours, approximately 8 days after the final dose). For the same compound, the “Percent efficacy (reduction in live and moribund flea counts)” value in the series with Ctenocephalides felis [4] (Group 2, 0.75 mg/kg daily in wet canned cat food days 0-29, by day 9) was 100%; in the series on Ctenocephalides felis [4] (Group 3, 1.5 mg/kg daily in wet canned cat food days 0-29, by day 9) it was 100%.
